Consider 1 compound from ChEMBL document CHEMBL4610123, “Structure-Based Drug Discovery of N-((R)-3-(7-Methyl-1H-indazol-5-yl)-1-oxo-1-(((S)-1-oxo-3-(piperidin-4-yl)-1-(4-(pyridin-4-yl)piperazin-1-yl)propan-2-yl)amino)propan-2-yl)-2'-oxo-1',2'-dihydrospiro[piperidine-4,4'-pyrido[2,3-d][1,3]oxazine]-1-carboxamide (HTL22562): A Calcitonin Gene-Related …” (J Med Chem, 2020).

A value given as a limit tells only on which side of the number the result lay.

In this assay the target is T1, Cytochrome P450 2C8 (Homo sapiens, UniProt P10632).
T1 sequence (P10632 whole entry): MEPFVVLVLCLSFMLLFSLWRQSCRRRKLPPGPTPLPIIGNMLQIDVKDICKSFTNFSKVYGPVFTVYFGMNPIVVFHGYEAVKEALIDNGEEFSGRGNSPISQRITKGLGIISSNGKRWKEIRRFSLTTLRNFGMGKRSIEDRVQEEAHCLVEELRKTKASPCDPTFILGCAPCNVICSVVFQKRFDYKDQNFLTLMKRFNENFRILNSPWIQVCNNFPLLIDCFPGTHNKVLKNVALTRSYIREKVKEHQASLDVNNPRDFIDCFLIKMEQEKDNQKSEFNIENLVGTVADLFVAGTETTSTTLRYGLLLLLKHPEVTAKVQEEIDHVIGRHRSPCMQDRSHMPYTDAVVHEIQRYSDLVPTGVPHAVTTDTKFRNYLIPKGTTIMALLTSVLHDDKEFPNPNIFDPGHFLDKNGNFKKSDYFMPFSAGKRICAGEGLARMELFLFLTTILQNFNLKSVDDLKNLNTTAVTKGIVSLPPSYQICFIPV
Put plainly: Inhibition of CYP2C8 (unknown origin). It is filed as ADME.

The term IC50 denotes the point on the concentration scale where inhibition reaches its midpoint. A high value points to a need for much substance. In the case of `Cc1cc(C[C@@H](NC(=O)N2CCC3(CC2)OC(=O)Nc2ncccc23)C(=O)N[C@@H](CC2CCNCC2)C(=O)N2CCN(c3ccncc3)CC2)cc2cn[nH]c12` [HTL-0022562], the concentration for half-maximal inhibition (IC50) is > 50.1 µM.
